According to patent US20230265116A1, “DEGRADATION OF (EGFR) BY CONJUGATION OF EGFR INHIBITORS WITH E3 LIGASE LIGAND AND METHODS OF USE” (BEIGENE, LTD., priority 2020, published 2023):

Legend:
Assay type in all cases: cell-based
EGFR (HCC827 cells) = target: T1, EGFR (HCC827 cells) (Homo sapiens, UniProt P00533, DEL746-750); experiment: EGFR degradation HTRF assay, HCC827 cells; details: HCC827, 16h treatment
T1 construct: endogenous in cells; host or cells: HCC827
Description: BaF3 WT(wild type), BaF3-LTC(L858R/T790M/C797S) and BaF3-DTC(Del19/T790M/C797S) cells are treated with compounds diluted in 0.2% DMSO cell culture medium and incubate for 16h, 37° C., 5% CO2, H1975-#36, H1975-#28, H1975-#23 and HCC827 cells are treated with compounds diluted in 0.2% DMSO cell culture medium on day 2, incubate for 16h, 37° C., 5% CO2.the final concentriation of compounds in all assay is start with 10 uM, 5-fold dilution, total 8 doses were included.
After 16h treatment, add HTRF lysis buffer to each well; seal the plate and incubate 1 hour at room temperature on a plate shaker; Once the cells are lysed, 16 μL of cell lysate are transferred to a PE 384-well HTRF detection plate; 4 μL of pre-mixed HTRF antibodies are added to each well; Cover the plate with a plate sealer, spin 1000 rpm for 1 min, Incubate overnight at room temperature; Read on BMG PheraStar with HTRF protocol (337 nm-665 nm-620 nm).
The inhibition (degradation) percentage of the compound was calculated by the following equation: Inhibition percentage of Compound=100-100×(Signal-low control)/(High control-low control), wherein signal=each test compound group
High control=Cell group with added DMSO and without compound, indicating microplate readings without EGFR degradation;
Dmax is the maximum percentage of inhibition (degradation).
The IC50 (DC50) value of a compound can be obtained by fitting the following equation
Y=Bottom+(TOP−Bottom)/(1+((IC50/X)^hillslope))
Wherein, X and Y are known values, and IC50, Hillslope, Top and Bottom are the parameters obtained by fitting with software. Y is the inhibition percentage (calculated from the equation), X is the concentration of the compound; IC50 is the concentration of the compound when the 50% inhibition is reached. The smaller the IC50 value is, the stronger the inhibitory ability of the compound is. Vice versa, the higher the IC50 value is, the weaker the inhibitory ability of the compound is; Hillslope represents the slope of the fitted curve, generally around 1*; Bottom represents the minimum value of the curve obtained by data fitting, which is generally 0%±20%; Top represents the maximum value of the curve obtained by data fitting, which is generally 100%±20%. The experimental data were fitted by calculating and analyzing with Dotmatics data analysis software.

[1] = test system: EGFR Del19/T790M/C797S (BaF3-DTC cells); experiment: EGFR degradation HTRF assay, BaF3-DTC cells; details: 16h treatment; for DTC Dmax (%): maximum percentage of degradation; for DC50: read-out: DTC DC50
Summary of the method: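 BaF3 (WT, Del19/T790M/C797S) and HCC827 cells exposed 16 h at 37 °C, 5% CO2 to compounds in 0.2% DMSO medium, 8 doses from 10 uM top, 5-fold steps. Lysates read by HTRF (665/620 nm); degradation % vs DMSO control, DC50 from four-parameter fit, Dmax as maximal degradation.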

[2] = target: T2, EGFR L858R/T790M/C797S (BaF3-LTC cells) (Homo sapiens, UniProt P00533, C797S/L858R/T790M); experiment: EGFR degradation HTRF assay, BaF3-LTC cells; details: BaF3-LTC, 16h treatment; for Dmax: maximum percentage of degradation, read-out: LTC Dmax (%); for DC50: read-out: LTC DC50
T2 construct: expressed in transfected cells; host or cells: BaF3
T2 sequence (P00533 25-1210 T790M/C797S/L858R): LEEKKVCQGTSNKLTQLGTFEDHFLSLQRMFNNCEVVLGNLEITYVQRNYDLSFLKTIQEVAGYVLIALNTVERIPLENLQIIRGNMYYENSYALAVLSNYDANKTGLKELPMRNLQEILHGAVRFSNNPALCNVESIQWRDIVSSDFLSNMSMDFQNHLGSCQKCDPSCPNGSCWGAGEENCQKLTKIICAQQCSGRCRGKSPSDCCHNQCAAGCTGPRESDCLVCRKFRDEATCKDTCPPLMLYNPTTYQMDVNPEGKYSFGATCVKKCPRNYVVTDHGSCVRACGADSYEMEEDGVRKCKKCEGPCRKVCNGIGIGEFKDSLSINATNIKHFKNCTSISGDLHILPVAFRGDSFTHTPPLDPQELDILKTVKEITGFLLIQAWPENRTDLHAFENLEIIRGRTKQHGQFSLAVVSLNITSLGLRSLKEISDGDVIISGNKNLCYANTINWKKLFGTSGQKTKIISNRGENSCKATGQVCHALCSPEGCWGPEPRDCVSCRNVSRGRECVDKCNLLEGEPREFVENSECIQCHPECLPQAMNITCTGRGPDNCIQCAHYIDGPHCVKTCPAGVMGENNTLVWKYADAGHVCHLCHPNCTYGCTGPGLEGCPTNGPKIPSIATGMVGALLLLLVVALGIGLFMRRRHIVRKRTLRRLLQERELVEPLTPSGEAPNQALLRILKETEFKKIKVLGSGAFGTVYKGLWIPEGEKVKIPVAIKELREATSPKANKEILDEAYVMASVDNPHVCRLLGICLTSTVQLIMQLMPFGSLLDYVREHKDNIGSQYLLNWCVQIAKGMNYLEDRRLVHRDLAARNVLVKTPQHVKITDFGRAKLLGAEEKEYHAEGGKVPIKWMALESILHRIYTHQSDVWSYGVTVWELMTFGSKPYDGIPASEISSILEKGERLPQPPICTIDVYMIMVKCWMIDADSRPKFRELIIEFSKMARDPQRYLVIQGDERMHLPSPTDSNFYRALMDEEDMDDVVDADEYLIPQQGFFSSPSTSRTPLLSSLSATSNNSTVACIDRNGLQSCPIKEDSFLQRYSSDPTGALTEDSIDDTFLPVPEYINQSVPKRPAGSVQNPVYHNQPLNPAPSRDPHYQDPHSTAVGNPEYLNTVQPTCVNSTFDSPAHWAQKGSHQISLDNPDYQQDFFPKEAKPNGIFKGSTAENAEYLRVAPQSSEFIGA
Summary of the method: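 Cells treated 16 h at 37 °C, 5% CO2 in medium with 0.2% DMSO; top final concentration 10 uM, 5-fold dilution, 8 doses. Lysates read by HTRF (665/620 nm); degradation % versus DMSO high control, DC50 from four-parameter fit, Dmax as maximal degradation.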

T1 sequence (P00533 with tags, fused parts or gaps DEL746-750): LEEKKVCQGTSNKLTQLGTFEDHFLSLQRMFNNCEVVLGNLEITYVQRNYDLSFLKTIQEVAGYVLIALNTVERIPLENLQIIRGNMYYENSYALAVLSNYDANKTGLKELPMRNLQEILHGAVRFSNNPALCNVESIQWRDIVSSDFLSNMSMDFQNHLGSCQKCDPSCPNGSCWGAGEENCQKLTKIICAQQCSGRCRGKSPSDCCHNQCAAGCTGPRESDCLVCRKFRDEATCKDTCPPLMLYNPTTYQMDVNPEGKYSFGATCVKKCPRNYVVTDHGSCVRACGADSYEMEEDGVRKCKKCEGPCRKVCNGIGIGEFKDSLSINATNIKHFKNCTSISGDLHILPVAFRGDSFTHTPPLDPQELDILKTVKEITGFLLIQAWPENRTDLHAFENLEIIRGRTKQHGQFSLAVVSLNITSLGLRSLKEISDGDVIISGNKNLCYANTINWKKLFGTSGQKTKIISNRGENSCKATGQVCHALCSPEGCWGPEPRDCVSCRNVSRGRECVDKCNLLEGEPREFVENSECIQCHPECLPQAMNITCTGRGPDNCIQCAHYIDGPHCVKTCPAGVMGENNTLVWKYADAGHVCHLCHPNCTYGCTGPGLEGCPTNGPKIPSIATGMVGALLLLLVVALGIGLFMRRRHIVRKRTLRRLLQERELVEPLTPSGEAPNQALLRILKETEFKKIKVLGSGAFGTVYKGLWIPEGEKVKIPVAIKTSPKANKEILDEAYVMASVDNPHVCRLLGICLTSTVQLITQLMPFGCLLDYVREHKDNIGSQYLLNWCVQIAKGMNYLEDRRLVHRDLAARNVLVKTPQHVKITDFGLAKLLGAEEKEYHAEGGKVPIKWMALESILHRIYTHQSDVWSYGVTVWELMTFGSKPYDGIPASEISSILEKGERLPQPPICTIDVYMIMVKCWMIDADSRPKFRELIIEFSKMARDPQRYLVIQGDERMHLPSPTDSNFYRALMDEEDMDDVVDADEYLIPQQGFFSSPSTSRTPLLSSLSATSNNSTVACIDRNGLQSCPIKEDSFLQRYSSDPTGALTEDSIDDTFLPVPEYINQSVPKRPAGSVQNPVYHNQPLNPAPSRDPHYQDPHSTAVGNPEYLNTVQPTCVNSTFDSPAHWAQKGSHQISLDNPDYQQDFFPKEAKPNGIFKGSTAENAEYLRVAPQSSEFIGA

| SMILES | DC50 (EGFR (HCC827 cells)) [µM] | Dmax (EGFR (HCC827 cells); maximum percentage of degradation) [%] | DC50 [1] [µM] | Dmax [2] [%] | DC50 [2] [µM] | DTC Dmax (%) [1] [%] |
| --- | --- | --- | --- | --- | --- | --- |
| COc1cc(N2CCC(N3CCN(CC4CCC(c5ccc(N6CCC(=O)NC6=O)cc5)CC4)CC3)CC2)ccc1Nc1ncc(Cl)c(Nc2ccccc2P(C)(C)=O)n1 (stereo not shown) [Example 110, 1-(4-(4-((4-(1-(4-((5-chloro-4-((2-(dimethylphosphoryl)phenyl)amino)pyrimidin-2-yl)amino)-3-methoxyphenyl)piperidin-4-yl)piperazin-1-yl)methyl)cyclohexyl)phenyl)dihydropyrimidine-2,4(1H,3H)-dione] | 0.0496 | 81.2 | – | – | – | – |
| CCc1cc(Nc2ncc(Br)c(Nc3ccc4nccnc4c3P(C)(C)=O)n2)c(OC)cc1N1CCC(N2CCN(C3CN(c4cc(F)c(C5CCC(=O)NC5=O)c(F)c4)C3)CC2)CC1 (stereo not shown) [Example 302, 3-(4-(3-(4-(1-(4-((5-bromo-4-((5-(dimethylphosphoryl)quinoxalin-6-yl)amino)pyrimidin-2-yl)amino)-2-ethyl-5-methoxyphenyl)piperidin-4-yl)piperazin-1-yl)azetidin-1-yl)-2,6-difluorophenyl)piperidine-2,6-dione] | – | – | 0.00602 | 83.8 | 0.017 | 88.36 |
| CCc1cc(Nc2ncc(Br)c(Nc3ccc4nccnc4c3P(C)(C)=O)n2)c(OC)cc1N1CCC(N2CCN(CCc3ccc(C4CCC(=O)NC4=O)c(F)c3)C[C@@H]2COC)CC1 (stereo partly drawn) [Example 286, 3-(4-(2-((R)-4-(1-(4-((5-bromo-4-((5-(dimethylphosphoryl)quinoxalin-6-yl)amino)pyrimidin-2-yl)amino)-2-ethyl-5-methoxyphenyl)piperidin-4-yl)-3-(methoxymethyl)piperazin-1-yl)ethyl)-2-fluorophenyl)piperidine-2,6-dione] | – | – | 0.0237 | 81.5 | 0.0593 | 75.85 |
| CCc1cc(Nc2ncc(Cl)c(Nc3ccc4nccnc4c3P(C)(C)=O)n2)c(OC)cc1N1CCC(N2CCN(CCC3CCN(c4cc(F)c(C5CCC(=O)NC5=O)c(F)c4)CC3)CC2)CC1 (stereo not shown) [Example 269, 3-(4-(4-(2-(4-(1-(4-((5-chloro-4-((5-(dimethylphosphoryl)quinoxalin-6-yl)amino)pyrimidin-2-yl)amino)-2-ethyl-5-methoxyphenyl)piperidin-4-yl)piperazin-1-yl)ethyl)piperidin-1-yl)-2,6-difluorophenyl)piperidine-2,6-dione] | – | – | 0.0215 | 88.8 | 0.0437 | 95.39 |
| COc1cc(N2CCC(N3CC4CC(C3)N4CCC3CCN(c4cc(F)c(C5CCC(=O)NC5=O)c(F)c4)CC3)CC2)c(C)cc1Nc1ncc(Br)c(Nc2ccc3nccnc3c2P(C)(C)=O)n1 (stereo not shown) [Example 266, 3-(4-(4-(2-(3-(1-(4-((5-bromo-4-((5-(dimethylphosphoryl)quinoxaline-6-yl)amino)pyrimidin-2-yl)amino)-5-methoxy-2-methylphenyl)piperidin-4-yl)-3,6-diazabicyclo[3.1.1]heptan-6-yl)ethyl)piperidin-1-yl)-2,6-difluorophenyl)piperidine-2,6-dione] | – | – | 0.0503 | 73.6 | 0.0819 | 83.88 |
| COc1cc(N2CCC(N3C[C@@H]4C[C@H]3CN4CCC3CCN(c4cc(F)c(C5CCC(=O)NC5=O)c(F)c4)CC3)CC2)c(C)cc1Nc1ncc(Br)c(Nc2ccc3nccnc3c2P(C)(C)=O)n1 (stereo partly drawn) [Example 268, 3-(4-(4-(2-((1S,4S)-5-(1-(4-((5-bromo-4-((5-(dimethylphosphoryl)quinoxalin-6-yl)amino)pyrimidin-2-yl)amino)-5-methoxy-2-methylphenyl)piperidin-4-yl)-2,5-diazabicyclo[2.2.1]heptan-2-yl)ethyl)piperidin-1-yl)-2,6-difluorophenyl)piperidine-2,6-dione] | – | – | 0.022 | 90.5 | 0.0335 | 93.75 |
| CCc1cc(Nc2ncc(Br)c(Nc3ccc4nccnc4c3P(C)(C)=O)n2)c(OC)cc1N1CCC(N2CCN(CCc3cc(F)c(C4CCC(=O)NC4=O)cc3F)CC2)CC1 (stereo not shown) [Example 233, 3-(4-(2-(4-(1-(4-((5-bromo-4-((5-(dimethylphosphoryl)quinoxalin-6-yl)amino)pyrimidin-2-yl)amino)-2-ethyl-5-methoxyphenyl)piperidin-4-yl)piperazin-1-yl)ethyl)-2,5-difluorophenyl)piperidine-2,6-dione] | – | – | 0.0131 | 80.6 | 0.0353 | 86.57 |
| CCc1cc(Nc2ncc(Br)c(Nc3ccc4nccnc4c3P(C)(C)=O)n2)c(OC)cc1N1CCC(N2CCN(C(=O)[C@H]3C[C@H](Nc4ccc(C5CCC(=O)NC5=O)cc4)C3)CC2)CC1 (stereo partly shown) [Example 298, 3-(4-(((1r,3r)-3-(4-(1-(4-((5-bromo-4-((5-(dimethylphosphoryl)quinoxalin-6-yl)amino)pyrimidin-2-yl)amino)-2-ethyl-5-methoxyphenyl)piperidin-4-yl)piperazine-1-carbonyl)cyclobutyl)amino)phenyl)piperidine-2,6-dione] | – | – | 0.00438 | 80.8 | 0.0167 | 86.58 |

More lines, main results first:

| DC50 (EGFR (HCC827 cells)) [µM] | Dmax (EGFR (HCC827 cells); maximum percentage of degradation) [%] | DC50 [1] [µM] | Dmax [2] [%] | DC50 [2] [µM] | SMILES | DTC Dmax (%) [1] [%] |
| --- | --- | --- | --- | --- | --- | --- |
| – | – | 0.0286 | 87.5 | 0.0537 | CCc1cc(Nc2ncc(Br)c(Nc3ccc4nc(C(C)C)ccc4c3P(C)(C)=O)n2)c(OC)cc1N1CCC(N2CCN(CCC3CCN(c4cc(F)c(C5CCC(=O)NC5=O)c(F)c4)CC3)CC2)CC1 (stereo not shown) [Example 313, 3-(4-(4-(2-(4-(1-(4-((5-bromo-4-((5-(dimethylphosphoryl)-2-isopropylquinolin-6-yl)amino)pyrimidin-2-yl)amino)-2-ethyl-5-methoxyphenyl)piperidin-4-yl)piperazin-1-yl)ethyl)piperidin-1-yl)-2,6-difluorophenyl)piperidine-2,6-dione] | 90.8 |
| – | – | 0.00206 | 88.6 | 0.00734 | CCc1cc(Nc2ncc(Br)c(Nc3ccc4ncn(C)c(=O)c4c3P(C)(C)=O)n2)c(OC)cc1N1CCC(N2CCN(C(=O)C3CN(c4ccc5c(c4)CN(C4CCC(=O)NC4=O)C5=O)C3)CC2)CC1 (stereo not shown) [Example 712, 3-(5-(3-(4-(1-(4-((5-bromo-4-((5-(dimethylphosphoryl)-3-methyl-4-oxo-3,4-dihydroquinazolin-6-yl)amino)pyrimidin-2-yl)amino)-2-ethyl-5-methoxyphenyl)piperidin-4-yl)piperazine-1-carbonyl)azetidin-1-yl)-1-oxoisoindolin-2-yl)piperidine-2,6-dione] | 91.27 |
| – | – | 0.00748 | 89.9 | 0.0239 | CCc1cc(Nc2ncc(Br)c(Nc3ccc4nc(C(F)(F)F)ccc4c3P(C)(C)=O)n2)c(OC)cc1N1CCC(N2CCN(CCc3cc(F)c(C4CCC(=O)NC4=O)c(F)c3)CC2)CC1 (stereo not shown) [Example 435, 3-(4-(2-(4-(1-(4-((5-bromo-4-((5-(dimethylphosphoryl)-2-(trifluoromethyl)quinolin-6-yl)amino)pyrimidin-2-yl)amino)-2-ethyl-5-methoxyphenyl)piperidin-4-yl)piperazin-1-yl)ethyl)-2,6-difluorophenyl)piperidine-2,6-dione] | 92.59 |
| – | – | 0.00534 | 90.1 | 0.0189 | CCc1cc(Nc2ncc(Br)c(Nc3ccc4ncsc4c3P(C)(C)=O)n2)c(OC)cc1N1CCC(N2CCN(CCc3cc(F)c(C4CCC(=O)NC4=O)c(F)c3)CC2)CC1 (stereo not shown) [Example 714, 3-(4-(2-(4-(1-(4-((5-bromo-4-((7-(dimethylphosphoryl)benzo[d]thiazol-6-yl)amino)pyrimidin-2-yl)amino)-2-ethyl-5-methoxyphenyl)piperidin-4-yl)piperazin-1-yl)ethyl)-2,6-difluorophenyl)piperidine-2,6-dione] | 96.7 |
